Measured values published in patent US6521568B1, “Plant disease controlling compositions and plant disease controlling method” (Sumitomo Chemical Company, Limited, priority 1999, dated 2003).

Test system: fungi of gray mold of cucumber
Assay: Controlling effect on gray mold of cucumber, foliar spray on potted cucumber plants
Format: in vivo, Botrytis cinerea
Settings: single compound, 5.0 ppm, 10° C. humid for 6 days after inoculation
Method: Plastic pots were filled with sandy loam and sown with cucumber (Sagamihanjiro), followed by growing in a greenhouse for 12 days. A wettable powder of the Compound (I-j) and a wettable powder of procymidone were separately diluted with water, and these dilutions were tank-mixed, then the tank-mixed dilution of the prescribed concentrations of the Compound (I-j) and procymidone was prepared. Said tank-mixed dilution was sprayed to foliage of said cucumber so as to adhere the dilution sufficiently to the surfaces of its leave. After air-drying, a PDA medium including hyphae of the fungi of gray mold of cucumber was placed on the leave surfaces of said cucumber. After inoculation, the plastic pots were placed under a humid environment of 10° C. for 6 days, and then the controlling effect was examined. […]
At the examination, the following evaluation indices was used. The attack rates were calculated with Scheme 1, and then on the basis of the attack rates, the controlling values were calculated with Scheme 2. […]
The controlling effect, which is expected when treatment is carried out by mixing the given two species of active ingredient compounds, is generally calculated according to the following Colby equation described at Scheme 3. […]

`CC12CC1(C)C(=O)N(c1cc(Cl)cc(Cl)c1)C2=O` (stereo not shown) [(II), N-(3,5-dichlorophenyl)-1,2-dimethylcyclopropane-1,2-dicarboximide] was tested. Which Actual controlling value did it give?
The Actual controlling value was 0%.
